# Laboratory results reported in patent US11084795B2, “CFTR regulators and methods of use thereof” (The Regents of the University of California, priority 2015, dated 2021).
# Like-named read-outs stand apart in the source and are kept apart here. Where a SMILES comes first, the peptide text is derived from it. Bridges are numbered along the chain shown (N, C = ends).
# Key:
# [1] = target: T1, human wildtype CFTR (Homo sapiens, UniProt P13569); assay: Fluorescence plate reader assay of iodide influx in FRT cells co-expressing CFTR and YFP halide sensor
# [2] = target: T1, human wildtype CFTR; assay: Short-circuit current (Isc) in FRT cells expressing human wild-type CFTR
# [3] = system: tear fluid secretion; format: in vivo, mouse
# [4] = system: CFTR at the ocular surface; assay: Ocular surface potential difference (PD) in living mice; format: in vivo, mouse; settings: wild-type mice, 1-10 μM
# Method: Open-circuit transepithelial PD were measured continuously in anesthetized mice in response to serial perfusions of different solutions over the ocular surface, as described (21). Mice were anesthetized with Avertin (2,2,2-tribromoethanol, 125 mg/kg intraperitoneal, Sigma-Aldrich, St. Louis, Mo., USA), and core temperature was maintained at 37° C. using a heating pad. Eyes were oriented with the cornea and conjunctiva facing upward and exposed by retracting the eyelid with cross-action forceps. Solutions were isosmolar (320±10 mOsM; compositions provided in ref. 21) and contained 10μ[…] indomethacin to prevent CFTR activation by prostaglandins. The ocular surface was perfused at 6 mL/min through plastic tubing using a multireservoir gravity pinch-valve system (ALA Scientific, Westbury, N.Y., USA) and variable-flow peristaltic pump (medium flow model; Fisher Scientific, Fair Lawn, N.J., USA). A probe catheter was fixed 1 mm above the cornea using a micropositioner and a suction cannula was positioned 3 mm from the orbit. The measuring electrode was in contact to the perfusion catheter and connected to a high-impedance voltmeter (IsoMilivolt Meter; WPI). The reference electrode was grounded via a winged 21-gauge needle filled with isosmolar saline, and inserted subcutaneously in the abdomen. Measuring and reference electrodes consisted of Ag/AgCl with 3 M KCl agar bridges.
# An open-circuit potential difference (PD) method developed in our lab was used to evaluate compound activity at the ocular surface in vivo, as depicted in FIG. 3A (21). Cl^− channel function was quantified by measuring PD during continuous perfusion of the ocular surface with a series of solutions that imposed a transepithelial Cl^− gradient and contained various channel agonists and/or inhibitors. The ocular surface was first perfused with isosmolar saline to record the baseline PD. Amiloride was then added to the perfusate, followed by exchange to a low Cl^− solution in which Cl^− with an impermeant anion, gluconate. These maneuvers allow for direct visualization of CFTR activation in response to addition of candidate CFTR activators.
# Ocular surface potential difference measurements. Open-circuit transepithelial PD were measured continuously in anesthetized mice in response to serial perfusions of different solutions over the ocular surface, as described (21). Mice were anesthetized with Avertin (2,2,2-tribromoethanol, 125 mg/kg intraperitoneal, Sigma-Aldrich, St. Louis, Mo., USA), and core temperature was maintained at 37° C. using a heating pad. Eyes were oriented with the cornea and conjunctiva facing upward and exposed by retracting the eyelid with cross-action forceps. […]
# [5] = system: loperamide-treated mice; assay: Loperamide-induced mouse model of constipation
# [6] = system: chronic constipation / IBS-C patients; settings: linaclotide: chronic constipation; lubiprostone: IBS-C; cited from earlier work
# [7] = read-out: EC50, variation in the N1-substituent, plate reader assay
# [8] = wild-type mice, B074 100 μM, J027 and K089 50 μM, VX-770 10 μM, cholera toxin 0.1 μg/mL, forskolin 20 μM, IBMX 250 μM
# T1 sequence (P13569 whole entry): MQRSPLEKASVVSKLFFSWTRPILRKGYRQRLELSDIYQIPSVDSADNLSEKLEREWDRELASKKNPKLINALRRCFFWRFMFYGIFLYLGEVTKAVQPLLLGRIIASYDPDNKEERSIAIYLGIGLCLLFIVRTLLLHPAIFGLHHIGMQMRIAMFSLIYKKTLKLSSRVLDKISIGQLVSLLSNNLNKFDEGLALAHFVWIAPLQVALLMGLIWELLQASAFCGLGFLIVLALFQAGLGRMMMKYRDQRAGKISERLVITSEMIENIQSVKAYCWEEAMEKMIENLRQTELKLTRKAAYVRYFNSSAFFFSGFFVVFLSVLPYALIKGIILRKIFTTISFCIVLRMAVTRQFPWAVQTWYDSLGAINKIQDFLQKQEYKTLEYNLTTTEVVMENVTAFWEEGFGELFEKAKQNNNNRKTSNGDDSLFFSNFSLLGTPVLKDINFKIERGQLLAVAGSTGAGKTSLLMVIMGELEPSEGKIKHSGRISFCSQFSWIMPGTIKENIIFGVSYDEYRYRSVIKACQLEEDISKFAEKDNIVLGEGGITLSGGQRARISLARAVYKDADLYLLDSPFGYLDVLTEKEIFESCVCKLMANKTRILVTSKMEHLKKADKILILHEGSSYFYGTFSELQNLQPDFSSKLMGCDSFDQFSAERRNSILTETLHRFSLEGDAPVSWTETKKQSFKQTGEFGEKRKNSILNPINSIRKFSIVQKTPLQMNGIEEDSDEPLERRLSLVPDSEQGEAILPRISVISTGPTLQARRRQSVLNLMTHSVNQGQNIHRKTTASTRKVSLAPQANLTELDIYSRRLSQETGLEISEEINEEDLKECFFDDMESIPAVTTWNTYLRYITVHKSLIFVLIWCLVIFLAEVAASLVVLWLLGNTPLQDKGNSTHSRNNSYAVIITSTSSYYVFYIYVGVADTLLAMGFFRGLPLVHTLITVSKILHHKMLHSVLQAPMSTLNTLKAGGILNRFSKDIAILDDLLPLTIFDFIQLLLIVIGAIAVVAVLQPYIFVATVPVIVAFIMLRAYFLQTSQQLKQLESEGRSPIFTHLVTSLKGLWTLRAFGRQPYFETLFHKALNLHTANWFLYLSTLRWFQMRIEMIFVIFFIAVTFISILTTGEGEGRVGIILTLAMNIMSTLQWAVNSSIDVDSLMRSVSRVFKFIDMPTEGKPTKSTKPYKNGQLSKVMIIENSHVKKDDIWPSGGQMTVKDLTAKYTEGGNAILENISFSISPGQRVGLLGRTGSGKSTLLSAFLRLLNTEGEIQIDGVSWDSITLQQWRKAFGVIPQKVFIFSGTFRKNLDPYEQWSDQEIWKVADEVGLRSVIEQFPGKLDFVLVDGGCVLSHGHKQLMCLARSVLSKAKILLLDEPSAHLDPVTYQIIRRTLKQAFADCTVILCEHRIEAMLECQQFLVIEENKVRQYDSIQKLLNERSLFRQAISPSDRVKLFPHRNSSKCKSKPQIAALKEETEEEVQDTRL
compound,measurement,setting,value
"Nc1ccc([N+](=O)[O-])cc1-c1nc2cc(Cl)ccc2n(Cc2ccccc2)c1=O [CFTRact-J135, 3-(2-Amino-5-nitrophenyl)-1-benzyl-6-chloroquinoxalin-2(1H)-one]",EC50,[1],110 nM
same,EC50,"[2]; EC50 for CFTR activation, FRT cells, wild-type CFTR, short-circuit current",~300 nM
same,extent of CFTR activation (Isc),[2]; forskolin produced little or no further increase in current,fully activated CFTR
"O=c1c(-c2cccc([N+](=O)[O-])c2)nc2ccccc2n1Cc1ccccn1 [Compound 3h, 3-(3-Nitrophenyl)-1-(pyridin-2-ylmethyl)quinoxalin-2(1H)-one]",EC50,[1]; [7],52 nM
"O=c1c(-c2cccc([N+](=O)[O-])c2)nc2ccccc2n1Cc1ccco1 [Compound 3i, 1-(Furan-2-ylmethyl)-3-(3-nitrophenyl)quinoxalin-2(1H)-one]",EC50,[1]; [7],20 nM
"CC(=O)Nc1ccc([N+](=O)[O-])cc1-c1nc2cccc3c2n(c1=O)CCO3 [Compound 16, N-(4-nitro-2-(5-oxo-2,3-dihydro-5H-[1,4]oxazino[4,3,2-de]quinoxalin-6-yl)phenyl) acetamide]",EC50,"[1]; read-out: EC50, constrained ring analogs, plate reader assay",820 nM
"Nc1ccc([N+](=O)[O-])cc1-c1nc2cccc3c2n(c1=O)C(c1ccccc1)CO3 (stereo not drawn) [Compound 20, 6-(2-Amino-5-nitrophenyl)-3-phenyl-2,3-dihydro-5H-[1,4]oxazino[4,3,2-de]quinoxalin-5-one]",EC50,[1],> 10000 nM
Fc1ccc2nc3n(Cc4ccccc4)c4ccc(C(F)(F)F)cc4nc-3c2c1 [Compound 22],EC50,[1],> 10000 nM
"CC(C)Cn1c(=O)n(C)c(=O)c2[nH]cnc21 [IBMX, 3-isobutyl-1-methylxanthine, reference compound]",tear fluid secretion after single topical dose,[3]; [8],"substantially increased basal tear secretion at 30 min, but these effects were transient and undetectable after 2 hours"
"CC(C)(C)c1cc(C(C)(C)C)c(NC(=O)c2c[nH]c3ccccc3c2=O)cc1O [VX-770, reference compound]",tear fluid secretion after single topical dose,[3]; [8],little tear secretion
same,activity against wild-type CFTR,[2],relatively weak activity
same,maximal CFTR activation,[2]; wild-type CFTR,15%
same,change in ocular surface PD,[4],minimal changes in ocular surface PD
"Cn1c(=O)c(-c2cc([N+](=O)[O-])ccc2N)nc2ccccc21 [inactive chemical analog of CFTRact-J027, reference compound]",efficacy on stool parameters of inactive analog,[5]; loperamide-treated wildtype mice,nor was an inactive chemical analog of CFTRact-J027 effective in wildtype mice
"C[C@@H]1NC(=O)[C@@H]2CCCN2C(=O)[C@H](CC(N)=O)NC(=O)[C@@H]2CSSC[C@H](N)C(=O)N[C@H]3CSSC[C@H](NC1=O)C(=O)N[C@@H]([C@@H](C)O)C(=O)NCC(=O)N[C@H](C(=O)N[C@@H](Cc1ccc(O)cc1)C(=O)O)CSSC[C@H](NC(=O)[C@H](Cc1ccc(O)cc1)NC(=O)[C@H](CCC(=O)O)NC3=O)C(=O)N2 [linaclotide, reference compound] (H-CCEYCCNPACTGCY-OH; disulfide 1-6, 2-10, 5-13)",patients in whom the drug was effective,[6],~20%
same,stool output normalization as % of the maximal CFTRact-J027 response,"[5]; oral 0.5 mg/kg, loperamide-treated mice",35%
CCCCC(F)(F)[C@@]1(O)CC[C@H]2[C@@H](CC(=O)[C@@H]2CCCCCCC(=O)O)O1 [lubiprostone],patients in whom the drug was effective,[6],~13%
cholera toxin [reference compound],tear fluid secretion after single topical dose,"[3]; mouse, in vivo","substantially increased basal tear secretion at 30 min, but these effects were transient and undetectable after 2 hours"
